Results reported in patent US11396501B2, “Heteroaryl compounds as CXCR4 inhibitors, composition and method using the same” (CGENETECH (SUZHOU, CHINA) CO., LTD., priority 2017, dated 2022).

Target: CXCR4 (Homo sapiens, UniProt P61073)
Assay: HPB-ALL CXCR4 competitive binding assay (12G5 binding assay)
Design: HPB-ALL cells were maintained in RPMI-1640 (Gibico) supplemented with 10% FBS (Hyclone); endogenous in cells; host or cells: HPB-ALL cells
Conditions: HPB-ALL cells; competition with APC-conjugated anti-human CXCR4 clone 12G5 at its EC80; 4° C. for 3 h; FACS
Description: HPB-ALL CXCR4 Competitive Binding Assay
HPB-ALL cells were maintained in RPMI-1640 (Gibico) supplemented with 10% FBS (Hyclone). APC-conjugated anti-human CXCR4 was from Sungene. EC80 was first determined for 12G5 binding to CXCR4. Then the compounds for testing were added into 96-well plates serially diluted at a ratio of 1:3. Cells were washed once with ice-cold assay buffer (DPBS+2% HI-FBS) and then re-suspended in the same buffer at a final concentration of 1×10^6/mL. Cell suspension was then added into the wells and with the addition of APC-conjugated anti-human CXCR4 clone 12G5 at its EC80 determined. The mix of cell, compounds and APC-conjugated anti-human CXCR4 were incubated at 4° C. for 3 h before addition of 100 μL of 4% PFA. Cells were then washed once and resuspended in assay buffer and examined by FACS. The percent (%) effect at each concentration of compound was calculated and relative to the amount of calcium produced in the positive and negative control wells contained within each assay plate. The concentrations and % effect values for tested compounds were plotted and the concentration of compound required for 50% effect (IC50) was determined. Tables 2 summarize results of the CXCR4 competitive binding assay for selected compounds disclosed in the present disclosure. FIGS. 1-2 depict the IC50 curves of compounds A42 and A43.

CXCR4, sequence (P61073 whole entry): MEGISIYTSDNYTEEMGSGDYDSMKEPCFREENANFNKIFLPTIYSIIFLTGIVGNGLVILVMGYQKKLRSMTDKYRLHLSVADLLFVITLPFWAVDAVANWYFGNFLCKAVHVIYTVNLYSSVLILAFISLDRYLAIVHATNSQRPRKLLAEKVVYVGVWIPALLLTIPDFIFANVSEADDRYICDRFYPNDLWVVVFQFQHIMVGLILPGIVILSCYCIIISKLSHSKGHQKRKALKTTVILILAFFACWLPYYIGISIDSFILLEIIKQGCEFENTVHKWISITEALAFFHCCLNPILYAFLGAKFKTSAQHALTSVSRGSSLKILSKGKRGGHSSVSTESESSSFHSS

SMILES	IC50 [nM]
Cc1nc(CN(C)[C@H]2CCCc3cccnc32)cc(N2CCN3CCC[C@H]3C2)n1 [Compound A69]	27
Cc1nc(CN2CCC(C)C2c2ccccn2)cc(N2CCN(C)CC2)n1 (stereo not shown) [Compound C29]	1200
CSc1nc(CN(C)C(CCCCNC(=O)OC(C)(C)C)c2ccccn2)cc(N2CCN(C)CC2)n1 (stereo not shown) [Compound A36]	5730
Cc1nc(CN(C)C(C)(C)c2ccccn2)cc(N2CCN(C)CC2)n1 [Compound A62]	2290
CSc1nc(CN2CCCCC2c2ccccn2)cc(N2CCN(C)CC2)n1 (stereo not shown) [Compound C10]	248
CC(C)N1CCN(c2cc(CN(C)C3CCCc4cccnc43)ncn2)CC1 (stereo not shown) [Compound A24]	42
Cc1cccc(C(C)N(C)Cc2cc(N3CCN(C)CC3)nc(C)n2)n1 (stereo not shown) [Compound A56]	131
CC(C)Nc1nc(CN(C)C2CCCc3cccnc32)cc(N2CCN(C)CC2)n1 (stereo not shown) [Compound A20]	210
Cc1ccc(C(C)N(C)Cc2cc(N3CCN(C)CC3)nc(C)n2)nc1 (stereo not shown) [Compound A55]	44
CN(C)c1ncc(CN(C)C2CCCc3cccnc32)c(NCCNC(=O)OC(C)(C)C)n1 (stereo not shown) [Compound B7, reference compound]	> 10000
CCN(Cc1cc(N2CCN(C)CC2)nc(C)n1)C1c2ncccc2CCC12CC2 (stereo not shown) [Compound A44]	296
CN(Cc1cc(N2CCN(CCO)CC2)ncn1)C1CCCc2cccnc21 (stereo not shown) [Compound A5]	113
Cc1ccnc(C(C)N(C)Cc2cc(N3CCN(C)CC3)nc(C)n2)c1 (stereo not shown) [Compound A54]	356
Cc1nc([C@H]2C[C@@H](O)CN2[C@H]2CCCc3cccnc32)cc(N2CCN(C)CC2)n1 [Compound C16, (3R,5R)-5-(2-methyl-6-(4-methylpiperazin-1-yl)pyrimidin-4-yl)-1-((S)-5,6,7,8-tetrahydroquinolin-8-yl)pyrrolidin-3-ol]	7.74
Cc1nc(CN(C)[C@H]2CCCc3cccnc32)cc(N2CCN(C)[C@H](C)C2)n1 [Compound A65]	13
CCN1CCN(c2cc(CN(C)C3c4ncccc4CCC34CC4)nc(C)n2)CC1 (stereo not shown) [Compound A45]	886

SMILES	IC50 [nM]
CN1CCN(c2cc(CN(C)C3CCCc4cccnc43)nc(-c3cnn(C)c3)n2)CC1 (stereo not shown) [Compound A21]	790
Cc1nc(CN2CCCC2c2ccccn2)cc(N2CCN(C)CC2)n1 (stereo not shown) [Compound C12]	165
Cc1nc(CN2CCC[C@H]2c2ccccn2)cc(N2CCN(C)CC2)n1 [Compound C23]	144
CCN1CCN(c2cc(CN(C)C3CCCc4cccnc43)ncn2)CC1 (stereo not shown) [Compound A23]	34
Cc1nc(CN(C)C2CCCc3cccnc32)cc(N2CCN(C)CC2)n1 (stereo not shown) [Compound A9, N-methyl-N-((2-methyl-6-(4-methylpiperazin-1-yl)pyrimidin-4-yl)methyl)-5,6,7,8-tetrahydroquinolin-8-amine]	14
CN1CCN(c2cc(CN(C)C3CCCc4cccnc43)nc(-c3ccccc3)n2)CC1 (stereo not shown) [Compound A17]	2690
CN1CCN(c2cc(CN(C)C3CCCc4cccnc43)nc(C3CC3)n2)CC1 (stereo not shown) [Compound A11]	26
CN1CCN(c2cc(N(C)CC3CCCc4cccnc43)ncn2)CC1 (stereo not shown) [Compound B1]	> 10000
Cc1nc([C@H]2CCN2[C@H]2CCCc3cccnc32)cc(N2CCN(C)CC2)n1 [Compound C13]	62
Cc1cccc([C@@H]2CCCN2Cc2cc(N3CCN(C)CC3)nc(C)n2)n1 [Compound C28]	2280
CN1CCN(c2cc(CN(C)C3CCCc4cccnc43)nc(N)n2)CC1 (stereo not shown) [Compound A16]	17
Cc1nc(CN(C)C2CCCc3cccnc32)c(F)c(N2CCN(C)CC2)n1 (stereo not shown) [Compound A51]	16
CCOc1nc(CN(C)C2CCCc3cccnc32)cc(N2CCN(C)CC2)n1 (stereo not shown) [Compound A30]	65
Cc1nc([C@H]2CCCCN2[C@H]2CCCc3cccnc32)cc(N2CCN(C)CC2)n1 [Compound C6]	3240
CN(C)C1CCN(c2cc(CN(C)C3CCCc4cccnc43)ncn2)CC1 (stereo not shown) [Compound A25]	100
